What was measured:
erbB2 tyrosine kinase = biological target: T1, erbB2 tyrosine kinase (Homo sapiens, UniProt P04626); assay: Test (a) protein tyrosine kinase phosphorylation assay, erbB2; assay type: biochemical; conditions: ATP at Km concentration; read-out: IC50 Test (a): Inhibition of erbB2 tyrosine kinase protein phosphorylation
T1 construct: Recombinant intracellular fragments of EGFR, erbB2 and erbB4; made in house; host or cells: baculovirus/Sf21 insect cells (cleared lysate used)
Procedure: (§1) This test measures the ability of a test compound to inhibit the phosphorylation of a tyrosine containing polypeptide substrate by EGFR, erbB2 and erbB4 tyrosine kinase enzyme.
(§2) Recombinant intracellular fragments of EGFR, erbB2 and erbB4 (accession numbers X00588, X03363 and L07868 respectively) were cloned and expressed in the baculovirus/Sf21 system. […]
(§3) Constitutive kinase activity of these recombinant proteins was determined by their ability to phosphorylate a synthetic peptide (made up of a random co-polymer of Glutamic Acid, Alanine and Tyrosine in the ratio of 6:3:1). […]
(§4) The immobilised phospho-peptide product of the reaction was detected by immunological methods. […] After further washing, HRP activity in each well of the plate was measured colorimetrically using 22′-Azino-di-[3-ethylbenzthiazoline sulfonate (6)] diammonium salt crystals (ABTS™ from Roche) as a substrate.
(§5) Quantification of colour development and thus enzyme activity was achieved by the measurement of absorbance at 405 nm on a Molecular Devices ThermoMax microplate reader. Kinase inhibition for a given compound was expressed as an IC50 value. […] The range of phosphorylation was calculated from the positive (vehicle plus ATP) and negative (vehicle minus ATP) control values.

[1] = biological target: T2, erbB2 in a MCF7 derived cell line (Clone 24 cells) (Homo sapiens, UniProt P04626); assay: Test (c) Clone 24 phospho-erbB2 cell assay; assay type: cell-based; conditions: MCF7 derived Clone 24 cells, 4 hours with compound; read-out: IC50 Test (c): Inhibition of erbB2 tyrosine kinase protein phosphorylation
T2 construct: to give a cell line that overexpresses full length wild type erbB2 protein; expressed in transfected cells; host or cells: MCF7 (breast carcinoma) derived Clone 24 cells
T2 sequence (P04626 23-1255): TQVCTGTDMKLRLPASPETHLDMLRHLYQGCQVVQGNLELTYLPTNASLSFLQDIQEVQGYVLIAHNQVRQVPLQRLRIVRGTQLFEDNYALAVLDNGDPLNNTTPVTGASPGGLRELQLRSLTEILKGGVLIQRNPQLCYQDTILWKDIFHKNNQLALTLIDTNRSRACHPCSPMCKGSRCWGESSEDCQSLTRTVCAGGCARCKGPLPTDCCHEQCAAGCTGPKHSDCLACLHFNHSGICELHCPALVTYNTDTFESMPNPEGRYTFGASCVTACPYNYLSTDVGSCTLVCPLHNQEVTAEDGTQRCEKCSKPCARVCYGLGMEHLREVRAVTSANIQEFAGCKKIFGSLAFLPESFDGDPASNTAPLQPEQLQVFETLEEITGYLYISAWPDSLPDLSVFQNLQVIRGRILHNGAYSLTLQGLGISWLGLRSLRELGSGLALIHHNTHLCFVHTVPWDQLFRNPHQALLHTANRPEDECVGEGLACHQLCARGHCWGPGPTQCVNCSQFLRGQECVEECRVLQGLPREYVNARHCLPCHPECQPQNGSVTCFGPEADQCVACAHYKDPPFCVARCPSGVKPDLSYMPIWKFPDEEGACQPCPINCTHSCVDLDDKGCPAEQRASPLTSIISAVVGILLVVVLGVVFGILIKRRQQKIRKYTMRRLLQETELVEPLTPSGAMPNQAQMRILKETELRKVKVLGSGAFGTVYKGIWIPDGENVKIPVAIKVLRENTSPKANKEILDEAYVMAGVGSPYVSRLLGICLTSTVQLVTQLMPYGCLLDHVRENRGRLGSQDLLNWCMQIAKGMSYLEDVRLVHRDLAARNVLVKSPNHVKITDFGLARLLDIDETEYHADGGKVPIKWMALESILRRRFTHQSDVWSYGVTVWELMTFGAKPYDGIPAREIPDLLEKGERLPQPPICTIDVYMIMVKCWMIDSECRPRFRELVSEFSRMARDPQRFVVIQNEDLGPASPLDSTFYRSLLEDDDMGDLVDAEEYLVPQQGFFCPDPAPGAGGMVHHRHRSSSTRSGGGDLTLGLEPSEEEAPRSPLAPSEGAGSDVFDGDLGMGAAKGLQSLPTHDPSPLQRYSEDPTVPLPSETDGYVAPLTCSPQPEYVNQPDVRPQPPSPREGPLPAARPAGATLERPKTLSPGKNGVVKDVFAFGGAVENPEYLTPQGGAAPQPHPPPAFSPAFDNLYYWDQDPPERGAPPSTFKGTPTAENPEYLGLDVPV
Procedure: This immunofluorescence end point assay measures the ability of a test compound to inhibit the phosphorylation of erbB2 in a MCF7 (breast carcinoma) derived cell line which was generated by transfecting MCF7 cells with the full length erbB2 gene using standard methods to give a cell line that overexpresses full length wild type erbB2 protein (hereinafter ‘Clone 24’ cells).
Clone 24 cells were cultured in Growth Medium (phenol red free Dulbecco's modified Eagle's medium (DMEM) containing 10% foetal bovine serum, 2 mM glutamine and 1.2 mg/ml G418) in a 7.5% CO2 air incubator at 37° C. […] Cell density was measured using a haemocytometer and viability was calculated using Trypan Blue solution before being further diluted in Growth Medium and seeded at a density of 1×10^4 cells per well (in 100 μl) into clear bottomed 96 well plates (Packard, No. 6005182). […]
Immunostaining was performed at room temperature. […] Plates were analysed within six hours of completing the immunostaining.
The Fluorescence signal is each well was measured using an Acumen Explorer Instrument (Acumen Bioscience Ltd.), a plate reader that can be used to rapidly quantitate features of images generated by laser-scanning. […]

EGFR tyrosine kinase = biological target: T3, EGFR tyrosine kinase (Homo sapiens, UniProt P00533); assay: Test (a) protein tyrosine kinase phosphorylation assay, EGFR; assay type: biochemical; conditions: ATP at Km concentration; read-out: IC50 Test (a): Inhibition of EGFR tyrosine kinase protein phosphorylation
T3 construct: Recombinant intracellular fragments of EGFR, erbB2 and erbB4; made in house; host or cells: baculovirus/Sf21 insect cells (cleared lysate used)
T3 sequence (P00533 669-1210 limits assumed): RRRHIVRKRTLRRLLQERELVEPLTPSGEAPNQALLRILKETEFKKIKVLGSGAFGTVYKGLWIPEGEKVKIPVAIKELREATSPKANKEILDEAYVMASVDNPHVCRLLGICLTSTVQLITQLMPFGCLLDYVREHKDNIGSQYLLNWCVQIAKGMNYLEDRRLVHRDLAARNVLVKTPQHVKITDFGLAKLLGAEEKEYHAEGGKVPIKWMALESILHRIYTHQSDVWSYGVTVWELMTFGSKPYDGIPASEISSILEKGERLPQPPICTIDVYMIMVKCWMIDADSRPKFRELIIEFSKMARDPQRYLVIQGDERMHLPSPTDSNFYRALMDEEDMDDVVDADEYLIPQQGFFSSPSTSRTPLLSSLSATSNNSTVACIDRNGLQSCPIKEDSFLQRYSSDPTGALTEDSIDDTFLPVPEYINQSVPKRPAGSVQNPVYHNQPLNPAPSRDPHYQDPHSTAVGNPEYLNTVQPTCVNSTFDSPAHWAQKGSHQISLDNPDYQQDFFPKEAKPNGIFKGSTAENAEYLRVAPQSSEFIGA
Procedure: as §1, §2, §3, §4, §5

T1 sequence (P04626 676-1255 limits assumed): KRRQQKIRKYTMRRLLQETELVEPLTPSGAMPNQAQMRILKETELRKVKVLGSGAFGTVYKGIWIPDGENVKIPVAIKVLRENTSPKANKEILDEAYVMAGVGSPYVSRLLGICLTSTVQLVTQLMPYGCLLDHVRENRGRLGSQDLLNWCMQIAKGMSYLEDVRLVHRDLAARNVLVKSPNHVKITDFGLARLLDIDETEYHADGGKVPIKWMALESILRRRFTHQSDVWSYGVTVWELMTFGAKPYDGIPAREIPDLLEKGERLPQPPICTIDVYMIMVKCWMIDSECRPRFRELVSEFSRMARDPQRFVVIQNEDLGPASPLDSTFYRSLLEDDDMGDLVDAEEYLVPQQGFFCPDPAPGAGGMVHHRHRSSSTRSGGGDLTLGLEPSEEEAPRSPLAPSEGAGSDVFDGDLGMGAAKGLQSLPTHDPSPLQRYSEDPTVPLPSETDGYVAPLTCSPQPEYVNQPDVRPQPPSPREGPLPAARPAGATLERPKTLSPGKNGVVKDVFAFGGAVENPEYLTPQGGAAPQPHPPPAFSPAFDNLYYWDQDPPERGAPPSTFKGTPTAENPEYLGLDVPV

IC50 (erbB2 tyrosine kinase) [nM]	IC50 [1] [nM]	IC50 (EGFR tyrosine kinase) [nM]	SMILES
8	420	180	CN(CCOc1cccc2ncnc(Nc3ccc4c(cnn4Cc4ccccn4)c3)c12)C(=O)CO [Example 1, 2-Hydroxy-N-methyl-N-{2-[(4-{[1-(pyridin-2-ylmethyl)-1H-indazol-5-yl]amino}quinazolin-5-yl)oxy]ethyl}acetamide]
6	590	160	CN(CCOc1cccc2ncnc(Nc3ccc4c(cnn4Cc4cscn4)c3)c12)C(=O)CO [Example 2, 2-Hydroxy-N-methyl-N-{2-[(4-{[1-(1,3-thiazol-4-ylmethyl)-1H-indazol-5-yl]amino}quinazolin-5-yl)oxy]ethyl}acetamide]

Reference: US20090221616A1, “QUINAZOLINE DERIVATIVES AS EGF AND/OR ERBB2 TYROSINE KINASE INHIBITORS” (priority 2005, published 2009)
